Where two headings read alike, the source gives them in different places.
How the values were obtained:
Format in all cases: biochemical
[1] = molecular target: T1, human NPP1 (Homo sapiens, UniProt P22413); assay: NPP1 assay, capillary electrophoresis (CE)-based, ATP as substrate; settings: for IC50: human NPP1, 400 µM ATP, CE assay
T1 construct: human recombinant soluble NPP1 (Val191 - Leu591) expressed in murine myeloma NS0 cells; His-tag (N); purchased R&D Systems GmbH (Wiesbaden, Germany); host or cells: murine myeloma NS0 cells
T1 sequence (P22413 191-591): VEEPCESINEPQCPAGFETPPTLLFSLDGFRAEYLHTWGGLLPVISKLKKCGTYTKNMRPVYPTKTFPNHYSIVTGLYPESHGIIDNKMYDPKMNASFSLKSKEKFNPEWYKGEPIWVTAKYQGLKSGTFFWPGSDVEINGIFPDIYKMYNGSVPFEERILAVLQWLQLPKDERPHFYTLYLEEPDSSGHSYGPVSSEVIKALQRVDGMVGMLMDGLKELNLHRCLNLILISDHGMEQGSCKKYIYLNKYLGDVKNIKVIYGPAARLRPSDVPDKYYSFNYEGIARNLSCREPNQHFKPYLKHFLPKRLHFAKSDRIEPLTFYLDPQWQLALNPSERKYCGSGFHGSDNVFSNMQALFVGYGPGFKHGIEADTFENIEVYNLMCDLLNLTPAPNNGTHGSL
Method: (§1) Concentration-inhibition curves of the test compounds at human NPP1 were performed with ATP as substrate at a final concentration of 400 μM. Several different dilutions of the test compounds were prepared in assay buffer (10 mM N-cyclohexyl-2-aminoethanesulfonic acid (CHES), 2 mM CaCl2, 1 mM MgCl2, pH 9.00) and incubated with 20 ng of human recombinant soluble NPP1 (Val191 - Leu591) expressed in murine myeloma NS0 cells obtained from R&D Systems GmbH (Wiesbaden, Germany, purity 95%, purified by using an N-terminal His-tag). For initial screening and selectivity analysis, NPP1 prepared as previously described ([20]), diluted in assay buffer, was used. The mixture of enzyme, substrate and test compound or buffer without test compound was incubated for 30 min at 37°C, and the reaction was terminated by heating at 90°C for 5 min. Capillary electrophoresis (CE) analysis was carried out to analyze the formation of the product. Data collection and peak area analysis were performed by the P/ACE MDQ software 32 KARAT obtained from Beckman Coulter (Fullerton, CA, USA). A polyacrylamide-coated capillary was used [30 cm (20 cm effective length) × 50 μm (id) × 360 μm (od) purchased from Chromatographie Service GmbH (Langerwehe, Germany)]. Samples were injected electro-kinetically by applying a voltage of -6 kV for 30 s. Finally, analytes were separated by applying a separation voltage of -20 kV, and detected by UV at 260 nm. The IC50 values were determined by nonlinear curve fitting using the GraphPad Prism Software 7.0. The mechanism of inhibition at human NPP1 was determined employing different concentrations of the investigated compounds 6 (at 0, 0.4, 4.0 µM), and 7 (at 0, 0.4 and 40 µM) versus four different substrate concentrations ranging from 50 to 500 μM of ATP. The assay procedure and operation conditions were the same as described above. The experiment was conducted twice, each in triplicates. A Lineweaver-Burk was calculated using GraphPad Prism 7.0 for predicting the inhibition type of the compound.

[2] = test system: human NPP1; assay: as above
Method: as §1

[3] = molecular target: T2, human NTPDase1 (CD39) (Homo sapiens, UniProt P49961); assay: NTPDase CE-based assay, NTPDase1; settings: 20 µg/mL (12 µM); read-out: NTPDase1 inhibition, selectivity study
T2 construct: made in house; host or cells: COS-7 cells
T2 sequence (P49961 1-510): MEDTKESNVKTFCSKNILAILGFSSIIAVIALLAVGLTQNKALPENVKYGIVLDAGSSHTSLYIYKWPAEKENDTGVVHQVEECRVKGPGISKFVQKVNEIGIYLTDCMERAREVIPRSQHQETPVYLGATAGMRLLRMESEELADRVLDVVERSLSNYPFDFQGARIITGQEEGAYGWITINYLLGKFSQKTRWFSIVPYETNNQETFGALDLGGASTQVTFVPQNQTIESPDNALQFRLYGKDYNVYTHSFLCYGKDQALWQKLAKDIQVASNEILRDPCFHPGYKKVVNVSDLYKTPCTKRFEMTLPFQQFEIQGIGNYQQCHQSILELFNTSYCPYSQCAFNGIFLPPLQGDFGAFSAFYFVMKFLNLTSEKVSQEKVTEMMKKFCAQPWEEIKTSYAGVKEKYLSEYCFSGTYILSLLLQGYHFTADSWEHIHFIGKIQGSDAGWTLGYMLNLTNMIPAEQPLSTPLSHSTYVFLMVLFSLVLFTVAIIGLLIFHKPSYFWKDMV
Method: For monitoring the activity of human NTPDases (subtypes 1, 2, 3 and 8) in the presence of test compounds, a CE-based assay system was used, according to a published procedure ([11], [25]). The following concentrations of test compounds were investigated in initial screening studies: 63 IU/mL of compounds 1 and 2, 30 µM of compound 6. For selectivity studies, the following concentration were employed: 50 IU/mL of 1, 12 µM of 6, and 48 µM of 7. The amount of enzyme was selected according to previously performed enzymatic titration, and adjusted to ensure a 10–20% conversion rate. Enzymes were obtained by transfection of COS-7 cells using plasmids encoding human NTPDase1 (GenBank accession number U87967) ([26]), NTPDase2 (NM_203468) ([27]), a kind gift of Dr. A.F. Knowles (San Diego, CA), NTPDase3 (AF034840) ([28]), a kind gift of Dr. T.L. Kirley (Cincinnati, OH) and human NTPDase8 (AY430414) ([29]) and purified as previously described ([30], [31]). The reaction buffer consisted of 10 mM HEPES, 2 mM CaCl2, and 1 mM MgCl2, pH 7.4. In the CE assay, the selected substrate concentration (ATP) was 100 µM for all studied human NTPDases (-1, -2, -3 and -8). […] The released products were separated by CE and quantified by their UV-absorption at 260 nm with ADP and AMP as external standards, as previously described ([11]); positive and negative controls were included.

CO[C@H]1O[C@H](COS(=O)(=O)O)[C@@H](O[C@@H]2O[C@@H](C(=O)O)[C@@H](O[C@H]3O[C@H](COS(=O)(=O)O)[C@@H](O[C@@H]4O[C@H](C(=O)O)[C@@H](O[C@H]5O[C@H](COS(=O)(=O)O)[C@@H](O)[C@H](O)[C@H]5NS(=O)(=O)O)[C@H](O)[C@H]4O)[C@H](OS(=O)(=O)O)[C@H]3NS(=O)(=O)O)[C@H](O)[C@H]2OS(=O)(=O)O)[C@H](O)[C@H]1NS(=O)(=O)O [Compound 6, Fondaparinux]
inhibition type at human NPP1 ([1]; Lineweaver-Burk plots, ATP 50-500 µM): mixed-type
IC50 ([1]; read-out: IC50 ± SD (µg/ml) (converted)): 3.31 µM
IC50 ([1]; values of 1 and 2 estimated (1 IU = 0.002 mg; mean 16.5 kDa for heparin-sodium), read-out: IC50 ± SD): 2.94 ± 0.61 µM
NPP1 inhibition, selectivity study ([2]; 20 µg/mL (12 µM)): full inhibition
inhibition of human NPP1, initial screening ([2]; 50 µg/mL (30 µM)): almost complete inhibition
inhibition at 12 µM [3]: ~35%

— publication PMC10497752, “Heparins are potent inhibitors of ectonucleotide pyrophosphatase/phospho-diesterase-1 (NPP1) – a promising target for the immunotherapy of cancer” (Frontiers in Immunology, 2023)
